Source: ChEMBL document CHEMBL3045122, “Synthesis, in vitro antimicrobial, antiproliferative, and QSAR studies of N-(substituted phenyl)-2/4-(1H-indol-3-ylazo)-benzamides” (Med Chem Res, 2013)

Tests used:
P388 [1] = assay: Ratio of 5-Fluorouracil IC50 to compound IC50 for Mus musculus (mouse) P388 cells; assay type: functional
HCT-116 [2] = assay: Ratio of 5-Fluorouracil IC50 to compound IC50 for Homo sapiens (human) HCT116 cells; assay type: functional
P388 [3] = assay: Cytotoxicity against Mus musculus (mouse) P388 cells assessed as growth inhibition after 72 hr by MTT assay; assay type: functional, cell-based
HCT-116 [4] = assay: Cytotoxicity against Homo sapiens (human) HCT116 cells assessed as growth inhibition after 72 hr by MTT assay; assay type: functional, cell-based
Aspergillus niger [5] = assay: Ratio of MFC to MIC for Aspergillus niger; assay type: functional
MCF7 = assay: Cytotoxicity against Homo sapiens (human) MCF7 cells assessed as growth inhibition after 72 hr by MTT assay; assay type: functional, cell-based
Candida albicans [6] = assay: Ratio of MFC to MIC for Candida albicans; assay type: functional
Escherichia coli [7] = assay: Ratio of MBC to MIC for Escherichia coli; assay type: functional
Bacillus subtilis [8] = assay: Ratio of MBC to MIC for Bacillus subtilis; assay type: functional
Staphylococcus aureus [9] = assay: Ratio of MBC to MIC for Staphylococcus aureus; assay type: functional
Aspergillus niger [10] = assay: Fungicidal activity against Aspergillus niger; assay type: functional
Candida albicans [11] = assay: Fungicidal activity against Candida albicans; assay type: functional
Escherichia coli [12] = assay: Bactericidal activity against Escherichia coli; assay type: functional
Bacillus subtilis [13] = assay: Bactericidal activity against Bacillus subtilis; assay type: functional
Staphylococcus aureus [14] = assay: Bactericidal activity against Staphylococcus aureus; assay type: functional
Aspergillus niger [15] = assay: Antifungal activity against Aspergillus niger assessed as growth inhibition after 7 days by tube dilution method; assay type: functional
Escherichia coli [16] = assay: Antibacterial activity against Escherichia coli assessed as growth inhibition after 24 hr by tube dilution method; assay type: functional
Candida albicans [17] = assay: Antifungal activity against Candida albicans assessed as growth inhibition after 48 hr by tube dilution method; assay type: functional
Bacillus subtilis [18] = assay: Antibacterial activity against Bacillus subtilis assessed as growth inhibition after 24 hr by tube dilution method; assay type: functional
Staphylococcus aureus [19] = assay: Antibacterial activity against Staphylococcus aureus assessed as growth inhibition after 24 hr by tube dilution method; assay type: functional

Compound	Ratio IC50 (P388 [1])	Ratio IC50 (HCT-116 [2])	IC50 (P388 [3])	IC50 (HCT-116 [4])	Ratio (Aspergillus niger [5])	IC50 (MCF7)	Ratio (Candida albicans [6])	Ratio (Escherichia coli [7])	Ratio (Bacillus subtilis [8])	Ratio (Staphylococcus aureus [9])	MFC (Aspergillus niger [10])	MFC (Candida albicans [11])	MBC (Escherichia coli [12])	MBC (Bacillus subtilis [13])	MBC (Staphylococcus aureus [14])	-logMIC (Aspergillus niger [15])	-logMIC (Escherichia coli [16])	-logMIC (Candida albicans [17])	-logMIC (Bacillus subtilis [18])	-logMIC (Staphylococcus aureus [19])
Cc1ccc(NC(=O)c2ccc(/N=N\c3c[nH]c4ccccc34)cc2)cc1	73	1.8	0.0003 uM/ml	0.0254 uM/ml	3	0.0424 uM/ml	3	3	3	3	0.04 uM/ml	>0.14 uM/ml	>0.14 uM/ml	>0.14 uM/ml	>0.14 uM/ml	1.45	1.45	1.45	1.45	1.45
Cc1cccc(NC(=O)c2ccc(/N=N\c3c[nH]c4ccccc34)cc2)c1	73	–	0.0003 uM/ml	0.0989 uM/ml	3	0.0734 uM/ml	3	3	3	3	0.04 uM/ml	0.04 uM/ml	>0.14 uM/ml	>0.14 uM/ml	>0.14 uM/ml	1.45	1.75	1.45	1.75	1.45
O=C(Nc1ccccc1)c1ccc(/N=N\c2c[nH]c3ccccc23)cc1	–	–	Not Active	0.1029 uM/ml	3	0.1471 uM/ml	3	3	3	3	0.07 uM/ml	>0.15 uM/ml	>0.15 uM/ml	>0.15 uM/ml	>0.15 uM/ml	1.44	1.44	1.44	1.44	1.44
Cc1ccc(NC(=O)c2ccc(/N=N\c3c[nH]c4ccccc34)cc2)c(C)c1	–	–	0.1902 uM/ml	0.0761 uM/ml	3	0.087 uM/ml	3	3	3	3	0.03 uM/ml	0.14 uM/ml	>0.14 uM/ml	>0.14 uM/ml	>0.14 uM/ml	1.47	1.47	1.47	1.47	1.47
O=C(Nc1cccc([N+](=O)[O-])c1)c1ccc(/N=N\c2c[nH]c3ccccc23)cc1	–	–	0.0519 uM/ml	0.0701 uM/ml	3	0.0519 uM/ml	3	3	3	3	0.03 uM/ml	0.06 uM/ml	>0.13 uM/ml	>0.13 uM/ml	>0.13 uM/ml	1.49	1.49	1.49	1.79	1.19
